Measured values reported in patent publication US10112929B2, “Lactams as inhibitors of rock” (BRISTOL-MYERS SQUIBB COMPANY, priority 2015, dated 2018).
Counter-ions that a name gives are not always drawn.

Target: ROCK2 (Homo sapiens (Human), UniProt O75116)
Assay: biochemical
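Further: rho kinase enzyme reaction halted with EDTA, phospho- and non-phospho peptide separated for read-out, kinase activity inhibition derived across a dose-response series, DMSO under 2%.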

Chain of ROCK2 (O75116 whole entry, species assumed): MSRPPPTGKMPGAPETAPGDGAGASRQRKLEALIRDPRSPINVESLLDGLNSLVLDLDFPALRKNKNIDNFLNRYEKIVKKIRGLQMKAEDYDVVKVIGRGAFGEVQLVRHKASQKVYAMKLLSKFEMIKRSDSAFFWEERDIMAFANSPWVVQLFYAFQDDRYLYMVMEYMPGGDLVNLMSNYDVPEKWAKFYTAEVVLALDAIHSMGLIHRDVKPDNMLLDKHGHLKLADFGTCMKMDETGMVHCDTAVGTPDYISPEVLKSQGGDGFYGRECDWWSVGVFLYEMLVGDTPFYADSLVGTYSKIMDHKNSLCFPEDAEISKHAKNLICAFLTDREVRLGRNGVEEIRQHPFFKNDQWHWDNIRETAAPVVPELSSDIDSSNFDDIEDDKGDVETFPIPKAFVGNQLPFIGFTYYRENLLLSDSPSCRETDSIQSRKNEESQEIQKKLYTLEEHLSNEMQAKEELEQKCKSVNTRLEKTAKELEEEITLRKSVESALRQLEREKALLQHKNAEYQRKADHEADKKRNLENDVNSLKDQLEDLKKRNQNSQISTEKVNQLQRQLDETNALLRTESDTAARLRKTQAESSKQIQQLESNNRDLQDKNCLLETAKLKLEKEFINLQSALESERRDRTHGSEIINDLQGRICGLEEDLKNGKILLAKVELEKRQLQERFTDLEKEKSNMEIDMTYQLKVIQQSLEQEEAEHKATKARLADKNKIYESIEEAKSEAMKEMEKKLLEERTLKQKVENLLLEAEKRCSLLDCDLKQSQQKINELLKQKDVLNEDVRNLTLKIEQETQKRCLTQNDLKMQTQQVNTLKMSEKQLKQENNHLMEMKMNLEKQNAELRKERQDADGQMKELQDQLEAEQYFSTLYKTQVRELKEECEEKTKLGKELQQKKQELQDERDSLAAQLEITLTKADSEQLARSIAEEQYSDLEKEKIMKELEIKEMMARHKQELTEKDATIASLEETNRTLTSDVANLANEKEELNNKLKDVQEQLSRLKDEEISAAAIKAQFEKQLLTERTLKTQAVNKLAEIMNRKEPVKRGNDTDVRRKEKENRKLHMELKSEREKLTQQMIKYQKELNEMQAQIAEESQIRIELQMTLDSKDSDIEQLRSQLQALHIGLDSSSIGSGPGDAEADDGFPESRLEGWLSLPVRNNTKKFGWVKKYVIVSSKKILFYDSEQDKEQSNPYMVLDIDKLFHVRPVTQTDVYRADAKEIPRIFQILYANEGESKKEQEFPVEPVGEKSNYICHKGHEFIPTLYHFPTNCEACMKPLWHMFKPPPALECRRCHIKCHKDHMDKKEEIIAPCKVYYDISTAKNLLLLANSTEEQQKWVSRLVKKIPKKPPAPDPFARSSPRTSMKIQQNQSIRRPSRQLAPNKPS

Question: `COc1cccc2c1N(C1CCN(c3ccc(-c4cn[nH]c4)cc3)C1=O)CC2` (single isomer, unassigned) [Example 51, l-(4-(1H-pyrazol-4-yl)phenyl)-3-(7-methoxyindolin-1-yl)pyrrolidin-2-one] was tested. Which IC50 did it give?
Answer: Its IC50 is 10 to 100 nM.

Question: `COc1cccc(NC2C(=O)N(c3ccc(-c4cn[nH]c4)cc3)C[C@H]2CO)c1` (single isomer, unassigned) [Example 323] was tested. Which IC50 did it give?
Answer: Its IC50 is under 10 nM.

Question: `O=C1C(Oc2ccccc2)CCN1c1ccc(-c2cn[nH]c2)cc1` (stereo not shown) [Example 64, 1-(4-(1H-pyrazol-4-yl)phenyl)-3-phenoxypyrrolidin-2-one] was tested. Which IC50 did it give?
Answer: Its IC50 is 10 to 100 nM.

Question: For `COc1cc(N2CCC(Nc3cc(F)cc(F)c3)C2=O)ccc1-c1cn[nH]c1` (single isomer, unassigned) [Example 146, 3-((3,5-difluorophenyl)amino)-1-(3-methoxy-4-(1H-pyrazol-4-yl)phenyl) pyrrolidin-2-one], which IC50 is on record?
Answer: Its IC50 is under 10 nM.

Question: How did the IC50 turn out when `COc1cc(F)cc(NC2CCN(c3ccc(-c4cn[nH]c4)cn3)C2=O)c1` (single isomer, unassigned) [Example 88, 1-(5-(1H-pyrazol-4-yl)pyridin-2-yl)-3-((3-fluoro-5-methoxyphenyl)amino)pyrrolidin-2-one] was run?
Answer: Its IC50 is under 10 nM.

Question: Which IC50 does the source give for `COc1cc(NC2CCN(c3ccc(-c4cn[nH]c4)c(OC)n3)C2=O)ccc1F` (single isomer, unassigned) [Example 207, 3-((4-fluoro-3-methoxyphenyl)amino)-1-(6-methoxy-5-(1H-pyrazol-4-yl)pyridin-2-yl)pyrrolidin-2-one] here?
Answer: Its IC50 is under 10 nM.

Question: With `COc1cccc(NC2CCN(c3ccc(-c4cn[nH]c4)cc3F)C2=O)c1` (single isomer, unassigned) [Example 328, 1-(2-fluoro-4-(1H-pyrazol-4-yl)phenyl)-3-((3-methoxyphenyl)amino)pyrrolidin-2-one] as the compound, how does the IC50 read?
Answer: Its IC50 is 10 to 100 nM.

Question: `COc1cc(N2CCC(Nc3cccc(OC(F)F)c3)C2=O)ccc1-c1cn[nH]c1` (stereo not shown) [Example 66, 3-((3-(Difluoromethoxy)phenyl)amino)-1-(3-methoxy-4-(1H-pyrazol-4-yl)phenyl)pyrrolidin-2-one] was tested. Which IC50 did it give?
Answer: Its IC50 is under 10 nM.

Question: `COc1c(F)cccc1NC1CCN(c2ccc(-c3cn[nH]c3)cn2)C1=O` (single isomer, unassigned) [Example 89, 1-(5-(1H-pyrazol-4-yl)pyridin-2-yl)-3-((3-fluoro-2-methoxyphenyl)amino) pyrrolidin-2-one] was tested. Which IC50 did it give?
Answer: The IC50 was under 10 nM.

Question: Which IC50 does the source give for `COc1cc(NC2CCN(c3ccc(-c4cn[nH]c4)c(Cl)c3)C2=O)ccc1F` (single isomer, unassigned) [Example 160, 1-(3-chloro-4-(1H-pyrazol-4-yl)phenyl)-3-((4-fluoro-3-methoxyphenyl)amino) pyrrolidin-2-one] here?
Answer: Its IC50 is 10 to 100 nM.

Question: How did the IC50 turn out when `COc1cc(F)cc(NC2CCN(c3ccc(-c4cn[nH]c4)c(C(F)(F)F)c3)C2=O)c1` (single isomer, unassigned) [Example 370, 1-(4-(1H-pyrazol-4-yl)-3-(trifluoromethyl)phenyl)-3-((3-fluoro-5-methoxyphenyl)amino)pyrrolidin-2-one] was run?
Answer: The IC50 was 10 to 100 nM.

Question: With `COc1cccc2c1N(C1CCN(c3ccc(-c4cn[nH]c4)cc3)C1=O)CC2` (single isomer, unassigned) [Example 52, 1-(4-(1H-pyrazol-4-yl)phenyl)-3-(7-methoxyindolin-1-yl)pyrrolidin-2-one] as the compound, how does the IC50 read?
Answer: The IC50 was 100 to 2200 nM.

Question: For `COc1cccc(NC2CCN(c3ccc(-c4ccnc5[nH]ccc45)c(C)n3)C2=O)c1` (single isomer, unassigned) [Example 120, 3-((3-methoxyphenyl)amino)-1-(6-methyl-5-(1H-pyrrolo[2,3-b]pyridin-4-yl)pyridin-2-yl)pyrrolidin-2-one], which IC50 is on record?
Answer: Its IC50 is 10 to 100 nM.

Question: How did the IC50 turn out when `O=C1C(CCc2ccccc2Cl)CCN1c1ccc(-c2cn[nH]c2)cc1` (stereo not shown) [Example 100, 1-(4-(1H-pyrazol-4-yl)phenyl)-3-(2-chlorophenethyl)pyrrolidin-2-one] was run?
Answer: The IC50 was 100 to 2200 nM.

Question: With `CCc1nc(N2CCC(Nc3cc(F)cc(OC)c3)C2=O)ccc1-c1cn[nH]c1` (single isomer, unassigned) [Example 316, 1-(6-ethyl-5-(1H-pyrazol-4-yl)pyridin-2-yl)-3-((3-fluoro-5-methoxyphenyl)amino) pyrrolidin-2-one] as the compound, how does the IC50 read?
Answer: The IC50 was under 10 nM.

Question: With `COc1cccc(NC2CCN(c3ccc(-c4ccnc(N)n4)cc3)C2=O)c1` (single isomer, unassigned) [Example 78, 1-(4-(2-aminopyrimidin-4-yl)phenyl)-3-((3-methoxyphenyl)amino)pyrrolidin-2-one] as the compound, how does the IC50 read?
Answer: The IC50 was 10 to 100 nM.

Question: With `COc1ccc(N[C@@H]2CCN(c3ccc(-c4cn[nH]c4)cc3)C2=O)cc1OC` [Example 389, (R)-1-(4-(1H-pyrazol-4-yl)phenyl)-3-((3,4-dimethoxyphenyl)amino)pyrrolidin-2-one] as the compound, how does the IC50 read?
Answer: The IC50 was 100 to 2200 nM.

Question: With `COc1ccc(C(N)=O)c(NC2CCN(c3ccc(-c4cn[nH]c4)cc3)C2=O)c1` (racemic) [Example 324, 2-((1-(4-(1H-pyrazol-4-yl)phenyl)-2-oxopyrrolidin-3-yl)amino)-4-methoxybenzamide] as the compound, how does the IC50 read?
Answer: Its IC50 is 100 to 2200 nM.

Question: With `COc1cccc(OC2CCN(c3ccc(-c4cn[nH]c4)c(OC)n3)C2=O)c1` (single isomer, unassigned) [Example 170, 1-(6-methoxy-5-(1H-pyrazol-4-yl)pyridin 2-yl)-3-(3-methoxyphenoxy)pyrrolidin-2-one] as the compound, how does the IC50 read?
Answer: Its IC50 is 10 to 100 nM.

Question: Which IC50 does the source give for `Cc1nc2ccc(NC3CCN(c4ccc(-c5cn[nH]c5)cc4)C3=O)cc2s1` (stereo not shown) [Example 115, 1-(4-(1H-pyrazol-4-yl)phenyl)-3-((2-methylbenzo[d]thiazol-6-yl)amino)pyrrolidin-2-one] here?
Answer: The IC50 was 100 to 2200 nM.

Question: With `COc1cc(F)cc(NC2CCN(c3ncc(-c4cn[nH]c4)cc3F)C2=O)c1` (single isomer, unassigned) [Example 359, 1-(3-fluoro-5-(1H-pyrazol-4-yl)pyridin-2-yl)-3-((3-fluoro-5-methoxyphenyl)amino) pyrrolidin-2-one] as the compound, how does the IC50 read?
Answer: The IC50 was 100 to 2200 nM.

Question: Which IC50 does the source give for `COc1cc(N2CCC(Nc3cccc(OC(C)C)c3)C2=O)ccc1-c1cn[nH]c1` (stereo not shown) [Example 71, 3-((3-isopropoxyphenyl)amino)-1-(3-methoxy-4-(1H-pyrazol-4-yl)phenyl)pyrrolidin-2-one, TFA] here?
Answer: Its IC50 is 10 to 100 nM.

Question: Which IC50 does the source give for `COc1ccc(F)c(NC2CCN(c3ccc(-c4cn[nH]c4)c(F)c3)C2=O)c1` (single isomer, unassigned) [Example 334, 1-(3-fluoro-4-(1H-pyrazol-4-yl)phenyl)-3-((2-fluoro-5-methoxyphenyl)amino) pyrrolidin-2-one] here?
Answer: Its IC50 is 10 to 100 nM.

Question: Which IC50 does the source give for `CCc1nc(N2CCC(Nc3ccc(F)c(OC)c3)C2=O)ccc1-c1cn[nH]c1` (single isomer, unassigned) [Example 317, 1-(6-ethyl-5-(1H-pyrazol-4-yl)pyridin-2-yl)-3-((4-fluoro-3-methoxyphenyl)amino) pyrrolidin-2-one] here?
Answer: The IC50 was under 10 nM.

Question: With `COc1cc(NC2CCN(c3ccc(-c4cn[nH]c4)c(C)n3)C2=O)ccc1F` (single isomer, unassigned) [Example 194, 3-((4-fluoro-3-methoxyphenyl)amino)-1-(6-methyl-5-(1H-pyrazol-4-yl)pyridin-2-yl)pyrrolidin-2-one] as the compound, how does the IC50 read?
Answer: The IC50 was 10 to 100 nM.

Question: `COc1c(F)cccc1NC1CCN(c2ccc(-c3cn[nH]c3)cc2)C1=O` (stereo not shown) [Example 1, 1-(4-(1H-Pyrazol-4-yl)phenyl)-3-((3-fluoro-2-methoxyphenyl)amino)pyrrolidin-2-one] was tested. Which IC50 did it give?
Answer: Its IC50 is under 10 nM.

Question: With `COc1cccc(NC2CCN(c3ccc(-c4c[nH]nc4C)c(OC)n3)C2=O)c1` (racemic) [Example 129, 1-(6-methoxy-5-(3-methyl-1H-pyrazol-4-yl)pyridin-2-yl)-3-((3-methoxyphenyl)amino)pyrrolidin-2-one] as the compound, how does the IC50 read?
Answer: The IC50 was under 10 nM.

Question: For `COCc1cc(N2CCC(Nc3cccc(OC)c3)C2=O)ccc1-c1cn[nH]c1` (single isomer, unassigned) [Example 184, 1-(3-(methoxymethyl)-4-(1H-pyrazol-4-yl)phenyl)-3-((3-methoxyphenyl)amino) pyrrolidin-2-one], which IC50 is on record?
Answer: Its IC50 is 10 to 100 nM.

Question: For `CCc1nc(N2CCC(Nc3ccc(F)c(OCC4CC4)c3)C2=O)ccc1-c1cn[nH]c1` (single isomer, unassigned) [Example 212, 3-((3-(cyclopropylmelhoxy)-4-fluorophenyl)amino)-1-(6-ethyl-5-(1H-pyrazol-4-yl)pyridin-2-yl)pyrrolidin-2-one], which IC50 is on record?
Answer: The IC50 was 100 to 2200 nM.

Question: With `COc1nc(N2CCC(N3CCC(CO)CC3)C2=O)ccc1-c1cn[nH]c1` (racemic) [Example 289, 3-(4-(hydroxymethyl)piperidin-1-yl)-1-(6-methoxy-5-(1H-pyrazol-4-yl)pyridin-2-yl)pyrrolidin-2-one] as the compound, how does the IC50 read?
Answer: The IC50 was 10 to 100 nM.

Question: With `COc1cc(F)cc(NC2CCN(c3ccc(-c4cn[nH]c4)c(OC)n3)C2=O)c1` (single isomer, unassigned) [Example 198, 3-((3-fluoro-5-methoxyphenyl)amino)-1-(6-methoxy-5-(1H-pyrazol-4-yl)pyridin-2 yl)pyrrolidin-2-one] as the compound, how does the IC50 read?
Answer: The IC50 was under 10 nM.

Question: For `O=C1C(c2ccccc2Cl)CCN1c1ccc(-c2cn[nH]c2)cc1` (stereo not shown) [Example 105, 1-(4-(1H-pyrazol-4-yl)phenyl)-3-(2-chlorophenyl)pyrrolidin-2-one], which IC50 is on record?
Answer: Its IC50 is 10 to 100 nM.

Question: With `CCOc1cccc(NC2CCN(c3ccc(-c4cn[nH]c4)c(OC)n3)C2=O)c1` (single isomer, unassigned) [Example 218, 3-((3-ethoxyphenyl)amino)-1-(6-methoxy-5-(1H-pyrazol-4-yl)pyridin-2-yl)pyrrolidin-2-one] as the compound, how does the IC50 read?
Answer: The IC50 was under 10 nM.

Question: `O=C1C(c2ccccc2)CCN1c1ccc(-c2cn[nH]c2)cc1` (stereo not shown) [Example 101, 1-(4-(1H-pyrazol-4-yl)phenyl)-3-phenylpyrrolidin-2-one] was tested. Which IC50 did it give?
Answer: Its IC50 is 10 to 100 nM.

Question: For `Cc1cc(N2CCC(Nc3cccc(OCC4CC4)c3)C2=O)ncc1-c1cn[nH]c1` (single isomer, unassigned) [Example 206, 3-((3-(cyclopropylmethoxy)phenyl)amino)-1-(4-methyl-5-(1H-pyrazol-4-yl)pyridin-2-yl)pyrrolidin-2-one], which IC50 is on record?
Answer: The IC50 was 100 to 2200 nM.

Question: With `O=C1C(Cc2cccc(F)c2)CCN1c1ccc(-c2cn[nH]c2)cc1` (stereo not shown) [Example 91, 1-(4-(1H-pyrazol-4-yl)phenyl)-3-(3-fluorobenzyl)pyrrolidin-2-one] as the compound, how does the IC50 read?
Answer: The IC50 was 100 to 2200 nM.

Question: With `COc1cc(NC2CCN(c3ccc(-c4cn[nH]c4)c(C(F)(F)F)c3)C2=O)ccc1F` (single isomer, unassigned) [Example 371, 1-(4-(1H-pyrazol-4-yl)-3-(trifluoromethyl)phenyl)-3-((4-fluoro-3-methoxyphenyl)amino)pyrrolidin-2-one] as the compound, how does the IC50 read?
Answer: Its IC50 is 100 to 2200 nM.
